Reference: PubChem BioAssay (NCI)
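Dose response: 5 concentrations. Exposure: 48 h. Format: 96-well plates. Endpoint: linear interpolation; highest concentration if not reached. Here, GI50 denotes the concentration required for 50% inhibition of growth. At the TGI there is no net growth.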

What was measured:
Experiment in all cases: NCI tumour cell line growth inhibition, 48 h
CAKI-1 renal = test system: CAKI-1 renal
CCRF-CEM leukemia = test system: CCRF-CEM leukemia
HT29 colon = test system: HT29 colon
HCC-2998 colon = test system: HCC-2998 colon
SK-MEL-2 melanoma = test system: SK-MEL-2 melanoma
SR leukemia = test system: SR leukemia
HOP-62 NSCLC = test system: HOP-62 NSCLC
A549 NSCLC = test system: A549 NSCLC
OVCAR-8 ovarian = test system: OVCAR-8 ovarian
MOLT-4 leukemia = test system: MOLT-4 leukemia
NCI-H522 lung = test system: NCI-H522 lung
SK-MEL-5 melanoma = test system: SK-MEL-5 melanoma
SN12C renal = test system: SN12C renal
SF-539 CNS = test system: SF-539 CNS
NCI-H226 lung = test system: NCI-H226 lung
K-562 leukemia = test system: K-562 leukemia
UACC-62 melanoma = test system: UACC-62 melanoma
NCI/ADR-RES ovarian = test system: NCI/ADR-RES ovarian
UACC-257 melanoma = test system: UACC-257 melanoma
OVCAR-4 ovarian = test system: OVCAR-4 ovarian
ACHN renal = test system: ACHN renal
SNB-75 CNS = test system: SNB-75 CNS
786-0 renal = test system: 786-0 renal
TK-10 renal = test system: TK-10 renal
PC-3 prostate = test system: PC-3 prostate
T-47D breast = test system: T-47D breast
NCI-H23 lung = test system: NCI-H23 lung
HCT-116 colon = test system: HCT-116 colon
SF-295 CNS = test system: SF-295 CNS
SW-620 colon = test system: SW-620 colon
DU-145 prostate = test system: DU-145 prostate
U251 CNS = test system: U251 CNS
RPMI-8226 leukemia = test system: RPMI-8226 leukemia
SK-MEL-28 melanoma = test system: SK-MEL-28 melanoma
NCI-H460 lung = test system: NCI-H460 lung
MDA-MB-435 = test system: MDA-MB-435
SF-268 CNS = test system: SF-268 CNS
HCT-15 colon = test system: HCT-15 colon
UO-31 renal = test system: UO-31 renal
HL-60(TB) leukemia = test system: HL-60(TB) leukemia
SNB-19 CNS = test system: SNB-19 CNS
SK-OV-3 ovarian = test system: SK-OV-3 ovarian
KM12 colon = test system: KM12 colon
EKVX NSCLC = test system: EKVX NSCLC
RXF 393 renal = test system: RXF 393 renal
M14 melanoma = test system: M14 melanoma
OVCAR-3 ovarian = test system: OVCAR-3 ovarian
HOP-92 NSCLC = test system: HOP-92 NSCLC
IGROV1 ovarian = test system: IGROV1 ovarian
MCF7 breast = test system: MCF7 breast
MDA-MB-231 breast = test system: MDA-MB-231 breast
OVCAR-5 ovarian = test system: OVCAR-5 ovarian
LOX IMVI melanoma = test system: LOX IMVI melanoma

## CCC1C(C)C=NN1c1nc(N)nc(C(C#N)=Nc2ccc(N(C)C)cc2)n1 (stereo unspecified)
CAKI-1 renal
  GI50: 9.06 µM
  TGI: 20.8 µM
CCRF-CEM leukemia
  GI50: 6.11 µM
  TGI: 20.4 µM
HT29 colon
  GI50: 16.5 µM
  TGI: > 50 µM
HCC-2998 colon
  GI50: 9.93 µM
  TGI: 19.6 µM
SK-MEL-2 melanoma
  GI50: 32.2 µM
  TGI: > 50 µM
SR leukemia
  GI50: 9.56 µM
  TGI: > 50 µM
HOP-62 NSCLC
  GI50: 18.8 µM
  TGI: > 50000 nM
A549 NSCLC
  GI50: 33.9 µM
  TGI: > 50 µM
OVCAR-8 ovarian
  GI50: 10.6 µM
  TGI: 31 µM
MOLT-4 leukemia
  GI50: 21.6 µM
  TGI: > 50 µM
NCI-H522 lung
  GI50: > 50 µM
  TGI: > 50 µM
SK-MEL-5 melanoma
  GI50: 9.09 µM
  TGI: 17.1 µM
SN12C renal
  GI50: 9.76 µM
  TGI: 18.9 µM
SF-539 CNS
  GI50: 1030 nM
  TGI: 5.97 µM
NCI-H226 lung
  GI50: 10.8 µM
  TGI: 28.8 µM
K-562 leukemia
  GI50: 2730 nM
  TGI: > 50 µM
UACC-62 melanoma
  GI50: 14.6 µM
  TGI: > 50 µM
NCI/ADR-RES ovarian
  GI50: 9.88 µM
  TGI: 22 µM
UACC-257 melanoma
  GI50: > 50 µM
  TGI: > 50 µM
OVCAR-4 ovarian
  GI50: 16.3 µM
  TGI: > 50 µM
ACHN renal
  GI50: 9.17 µM
  TGI: 17.1 µM
SNB-75 CNS
  GI50: 8.95 µM
  TGI: 22.6 µM
786-0 renal
  GI50: 17.4 µM
  TGI: > 50000 nM
TK-10 renal
  GI50: 10.6 µM
  TGI: 18.9 µM
PC-3 prostate
  GI50: 2530 nM
  TGI: 10.1 µM
T-47D breast
  GI50: 23.5 µM
  TGI: > 50 µM
NCI-H23 lung
  GI50: 13.8 µM
  TGI: > 50000 nM
HCT-116 colon
  GI50: 16.5 µM
  TGI: > 50000 nM
SF-295 CNS
  GI50: 8.96 µM
  TGI: 16.1 µM
SW-620 colon
  GI50: 12.1 µM
  TGI: 26.8 µM
DU-145 prostate
  GI50: 9.32 µM
  TGI: 17.4 µM
U251 CNS
  GI50: 8.93 µM
  TGI: 16.8 µM
RPMI-8226 leukemia
  GI50: 2550 nM
  TGI: > 50 µM
SK-MEL-28 melanoma
  GI50: 8.61 µM
  TGI: 18.4 µM
NCI-H460 lung
  GI50: 11.1 µM
  TGI: 24.5 µM
MDA-MB-435
  GI50: 16.7 µM
  TGI: > 50 µM
SF-268 CNS
  GI50: 10.6 µM
  TGI: 23.2 µM
HCT-15 colon
  GI50: 15.6 µM
  TGI: > 50000 nM
UO-31 renal
  GI50: 15.1 µM
  TGI: > 50 µM
HL-60(TB) leukemia
  GI50: 7.62 µM
  TGI: > 50 µM
SNB-19 CNS
  GI50: > 50 µM
  TGI: > 50 µM
SK-OV-3 ovarian
  GI50: 9.32 µM
  TGI: 17.8 µM
KM12 colon
  GI50: 9.85 µM
  TGI: 18.6 µM
EKVX NSCLC
  GI50: 11.3 µM
  TGI: 32.2 µM
RXF 393 renal
  GI50: 10.3 µM
  TGI: 24 µM
M14 melanoma
  GI50: 9.11 µM
  TGI: 16.5 µM
OVCAR-3 ovarian
  GI50: 10.1 µM
  TGI: 21.8 µM
HOP-92 NSCLC
  GI50: 12.1 µM
  TGI: > 50 µM
IGROV1 ovarian
  GI50: 30.9 µM
  TGI: > 50 µM
MCF7 breast
  GI50: 9.76 µM
  TGI: 17.8 µM
MDA-MB-231 breast
  GI50: 11.4 µM
  TGI: 30.9 µM
OVCAR-5 ovarian
  GI50: 10.2 µM
  TGI: 26.6 µM
LOX IMVI melanoma
  GI50: 8.53 µM
  TGI: 15.7 µM

## CSc1ccc2c(c1)C(=O)c1c-2n(CCCN)c(=O)c2cc([N+](=O)[O-])ccc12
HCC-2998 colon
  GI50: 0.104 µM
  TGI: 0.581 µM
HOP-62 NSCLC
  GI50: < 0.01 µM
  TGI: 147 nM
SK-MEL-5 melanoma
  GI50: 0.127 µM
  TGI: 1.63 µM
ACHN renal
  GI50: < 0.01 µM
  TGI: 0.327 µM
786-0 renal
  GI50: 0.0127 µM
  TGI: 108 nM
NCI-H23 lung
  GI50: < 0.01 µM
  TGI: 158 nM
HCT-116 colon
  GI50: < 0.01 µM
  TGI: 173 nM
SW-620 colon
  GI50: < 0.01 µM
  TGI: 0.209 µM
DU-145 prostate
  GI50: < 0.01 µM
  TGI: 0.16 µM
HCT-15 colon
  GI50: 0.0962 µM
  TGI: 249 nM
SK-OV-3 ovarian
  GI50: < 0.0117 µM
  TGI: 1.37 µM
RXF 393 renal
  GI50: 1.95 µM
  TGI: > 100 µM
M14 melanoma
  GI50: 0.0249 µM
  TGI: 1.07 µM
MDA-MB-231 breast
  GI50: 0.215 µM
  TGI: 0.422 µM
OVCAR-5 ovarian
  GI50: 0.123 µM
  TGI: 0.872 µM
